# Several values for one entry are separate records, joined by “and”; a condition that tells them apart may be missing. Identical values can stand only once.
# Key:
# [1] = tested on: Japonica rice (Oryza sativa var Kitaake), teff (Eragrostis tef), pearl millet (Pennisetum glaucum) seedlings; test: Ancymidol pretreatment during seed germination and seedling growth of other cereals; type: cell-based; details: 1 mg/l in 900 medium; all three cereal crops
# Protocol: Both […] ancymidol pretreatments during seed germination and seedling growth were tested (using medium 900 plus 1 mg/l or 2 mg/l ancymidol) on three cereals Japonica rice (Oryza sativa var Kitaake), teff (Eragrostis tef), and pearl millet (Pennisetum glaucum). […] When seed from all three species were germinated and grown on 900 medium plus 2 mg/l ancymodiol, the seedlings only grew to a height of 1-2 cm after 14 days and although the leaf-whorl region was thicker (due to wider leaves), processing these small seedlings to produce leaf segments followed by transformation was more difficult.
# In contrast, for all three cereal crops, seed germination and seedling growth on 900 plus 1 mg/l ancymidol produced an intermediate growth rate, with thicker stems and wider leaves than the control (with no ancymidol). […] Thus, compared to maize and sorghum in which 2 mg/l ancymidol pretreatment during seedling growth is optimal for leaf transformation, a lower concentration of 1 mg/l ancymidol produced optimal results in rice, tef, and pearl millet.
# [2] = tested on: inbred PHH5E seedling-derived leaf segments; test: Seedling pre-treatment with ancymidol before leaf transformation; type: cell-based, maize; details: PHP97334
# [3] = tested on: Pioneer inbred PHH5E leaf segments; test: Auxin (2,4-D) pre-treatment of seedlings prior to Agrobacterium infection (Table 29); type: cell-based, maize; details: for T-DNA Delivery: PHP71539 plus PHP97334
# [4] = tested on: maize plants with edited or wild-type ALS2 alleles; test: Chlorsulfuron resistance test of plants with edited and wild-type ALS2 alleles (spray, germination on medium); type: in vivo; details: for plants fourteen days after germination on media: 100 ppm; for phenotype three weeks after treatment: spray 50, 100 (1x), 200, 400 mg/liter
smiles,measurement,setting,value
"COc1ccc(C(O)(c2cncnc2)C2CC2)cc1 (centres unmarked) [Ancymidol, ancymidol]",transgenic T0 plantlets compared to the other two treatments,[1],produced the highest number of transgenic TO plantlets
same,Txn %,[2]; 2 mg/l,236% and 358% and 303%
same,Txn %,"[2]; 2 mg/l, listed as ancymidol",302%
same,Txn %,"[2]; 2 mg/l, total over three experiments",302%
same,Txn %,[2]; 4 mg/l,234% and 252% and 253%
same,Txn %,"[2]; 4 mg/l, listed as ancymidol",246%
same,Txn %,"[2]; 4 mg/l, total over three experiments",246%
"O=C(O)COc1ccc(Cl)cc1Cl [2,4-D, 2,4-dichlorophenoxyacetic acid]",No. SC Clean (single-copy T-DNA integration with no extraneous Agrobacterium sequences),"[3]; 3 mg/l 2,4-D for 24 hours",18
same,No. SC Clean (single-copy T-DNA integration with no extraneous Agrobacterium sequences),"[3]; 10 mg/l 2,4-D for 24 hours",40
same,T-DNA Delivery,"[3]; 10 mg/l 2,4-D for 24 hours before infection",4 (90-100%)
same,"effect on leaf transformation (Txn %, single-copy T-DNA integrations) compared to the control treatment","[3]; 10 mg/l, 24 hours",improved leaf transformation
same,No. SC Clean (single-copy T-DNA integration with no extraneous Agrobacterium sequences),"[3]; 30 mg/l 2,4-D for 24 hours",19
same,T-DNA Delivery,"[3]; 30 mg/l 2,4-D for 24 hours before infection",4 (90-100%)
COc1nc(C)nc(NC(=O)NS(=O)(=O)c2ccccc2Cl)n1 [chlorsulfuron],plants fourteen days after germination on media,[4]; plants with edited alleles,normal height and a well-developed root system
same,plants fourteen days after germination on media,[4]; plants with wild-type alleles,short and do not develop roots
same,phenotype three weeks after treatment,[4]; T1 plants with only wild-type alleles,strong signs of senescence
same,phenotype three weeks after treatment,[4]; four-week old T1 plants with an edited ALS2 allele,normal phenotype
